{
  "source": "ChEMBL document CHEMBL5500377",
  "about": "“Design, synthesis and molecular modeling of novel D-ring substituted steroidal 4,5-dihydropyrazole thiazolinone derivatives as anti-inflammatory agents by inhibition of COX-2/iNOS production and down-regulation of NF-κB/MAPKs in LPS-induced RAW264.7 macrophage cells” (Eur J Med Chem, 2024)",
  "key": {"[1]": {"tested_on": "RAW264.7", "experiment": "Anti-inflammatory activity against mouse RAW264.7 cells assessed as inhibition of LPS-induced NO production at 5 uM measured after 24 hrs incubation by Griess assay relative to control", "format": "functional"}, "[2]": {"experiment": "Cytotoxicity against mouse RAW264.7 cells assessed as cell viability at 5 uM measured after 24 hrs incubation by MTT assay relative to control", "format": "toxicity, cell-based", "conditions": "read-out: Activity"}, "[3]": {"tested_on": "RAW264.7", "experiment": "Anti-inflammatory activity against mouse RAW264.7 cells assessed as inhibition of LPS-induced NO production measured after 24 hrs incubation by Griess assay", "format": "functional, cell-based", "conditions": "RAW264.7, 24 h"}, "[4]": {"tested_on": "BV-2", "experiment": "Anti-inflammatory activity against […] assessed as inhibition of LPS-induced NO production at 2.5 to 20 uM measured after 24 hrs incubation by Griess assay", "format": "functional, cell-based", "conditions": "dose 2.5-20 µM"}, "[5]": {"tested_on": "RAW264.7", "experiment": "Anti-inflammatory activity against mouse RAW264.7 cells assessed as inhibition of LPS-induced TNFalpha level at 2.5 uM pretreated for 1 hr followed by induced with LPS measured after 24 hrs by ELISA (reference value: 0.61 ng/ml)", "format": "functional", "conditions": "time 25 hrs"}, "[6]": {"tested_on": "RAW264.7", "experiment": "Anti-inflammatory activity against mouse RAW264.7 cells assessed as inhibition of LPS-induced TNFalpha level at 5 uM pretreated for 1 hr followed by induced with LPS measured after 24 hrs by ELISA (reference value: 0.61 ng/ml)", "format": "functional", "conditions": "time 25 hrs"}, "[7]": {"tested_on": "RAW264.7", "experiment": "Anti-inflammatory activity against mouse RAW264.7 cells assessed as inhibition of LPS-induced TNFalpha level at 10 uM pretreated for 1 hr followed by induced with LPS measured after 24 hrs by ELISA (reference value: 0.61 ng/ml)", "format": "functional", "conditions": "time 25 hrs"}, "[8]": {"tested_on": "RAW264.7", "experiment": "Anti-inflammatory activity against mouse RAW264.7 cells assessed as inhibition of LPS-induced TNFalpha level at 20 uM pretreated for 1 hr followed by induced with LPS measured after 24 hrs by ELISA (reference value: 0.61 ng/ml)", "format": "functional", "conditions": "time 25 hrs"}, "[9]": {"tested_on": "RAW264.7", "experiment": "Anti-inflammatory activity against mouse RAW264.7 cells assessed as inhibition of LPS-induced COX2 level at 2.5 uM pretreated for 1 hr followed by induced with LPS measured after 24 hrs by ELISA (reference value: 95.38 pg/ml)", "format": "functional", "conditions": "time 25 hrs"}, "[10]": {"tested_on": "RAW264.7", "experiment": "Anti-inflammatory activity against mouse RAW264.7 cells assessed as inhibition of LPS-induced COX2 level at 5 uM pretreated for 1 hr followed by induced with LPS measured after 24 hrs by ELISA (reference value: 95.38 pg/ml)", "format": "functional", "conditions": "time 25 hrs"}, "[11]": {"tested_on": "RAW264.7", "experiment": "Anti-inflammatory activity against mouse RAW264.7 cells assessed as inhibition of LPS-induced COX2 level at 10 uM pretreated for 1 hr followed by induced with LPS measured after 24 hrs by ELISA (reference value: 95.38 pg/ml)", "format": "functional", "conditions": "time 25 hrs"}, "[12]": {"tested_on": "RAW264.7", "experiment": "Anti-inflammatory activity against mouse RAW264.7 cells assessed as inhibition of LPS-induced COX2 level at 20 uM pretreated for 1 hr followed by induced with LPS measured after 24 hrs by ELISA (reference value: 95.38 pg/ml)", "format": "functional", "conditions": "time 25 hrs"}, "[13]": {"tested_on": "RAW264.7", "experiment": "Anti-inflammatory activity against mouse RAW264.7 cells assessed as inhibition of LPS-induced TNFalpha level pretreated for 1 hr followed by induced with LPS measured after 24 hrs by ELISA", "format": "functional, cell-based", "conditions": "dose 2.5-20 µM, time 25.0 hrs"}, "[14]": {"tested_on": "RAW264.7", "experiment": "Anti-inflammatory activity against mouse RAW264.7 cells assessed as inhibition of LPS-induced COX2 level pretreated for 1 hr followed by induced with LPS measured after 24 hrs by ELISA", "format": "functional, cell-based", "conditions": "dose 2.5-20 µM, time 25.0 hrs"}, "[15]": {"tested_on": "RAW264.7", "experiment": "Anti-inflammatory activity against mouse RAW264.7 cells assessed as inhibition of LPS-induced TNFalpha mRNA level pretreated for 1 hr followed by induced with LPS measured after 6 hrs by quantitative RT-PCR analysis", "format": "functional, cell-based", "conditions": "dose 2.5-20 µM, time 7.0 hrs"}, "[16]": {"tested_on": "RAW264.7", "experiment": "Anti-inflammatory activity against mouse RAW264.7 cells assessed as inhibition of LPS-induced iNOS mRNA level pretreated for 1 hr followed by induced with LPS measured after 6 hrs by quantitative RT-PCR analysis", "format": "functional, cell-based", "conditions": "dose 2.5-20 µM, time 7.0 hrs"}, "[17]": {"tested_on": "RAW264.7", "experiment": "Anti-inflammatory activity against mouse RAW264.7 cells assessed as inhibition of LPS-induced IL-6 mRNA level pretreated for 1 hr followed by induced with LPS measured after 6 hrs by quantitative RT-PCR analysis", "format": "functional, cell-based", "conditions": "dose 2.5-20 µM, time 7.0 hrs"}, "[18]": {"tested_on": "RAW264.7", "experiment": "Anti-inflammatory activity against mouse RAW264.7 cells assessed as inhibition of LPS-induced COX2 mRNA level pretreated for 1 hr followed by induced with LPS measured after 6 hrs by quantitative RT-PCR analysis", "format": "functional, cell-based", "conditions": "dose 2.5-20 µM, time 7.0 hrs"}, "[19]": {"tested_on": "RAW264.7", "experiment": "Anti-inflammatory activity against mouse RAW264.7 cells assessed as inhibition of LPS-induced iNOS level pretreated for 1 hr followed by induced with LPS measured after 24 hrs by Western blot analysis", "format": "functional, cell-based", "conditions": "dose 2.5-10 µM, time 25.0 hrs"}, "[20]": {"tested_on": "RAW264.7", "experiment": "Anti-inflammatory activity against mouse RAW264.7 cells assessed as inhibition of LPS-induced COX2 level pretreated for 1 hr followed by induced with LPS measured after 24 hrs by Western blot analysis", "format": "functional, cell-based", "conditions": "dose 2.5-10 µM, time 25.0 hrs"}, "[21]": {"tested_on": "RAW264.7", "experiment": "Anti-inflammatory activity against mouse RAW264.7 cells assessed as inhibition of LPS-induced activation of NF-kappaB p65 by measuring phosphorylation pretreated for 1 hr followed by induced with LPS measured after 24 hrs by Western blot analysis", "format": "functional, cell-based", "conditions": "dose 2.5-10 µM, time 25.0 hrs"}, "[22]": {"tested_on": "RAW264.7", "experiment": "Inhibition of LPS-induced translocation of NFkappaB p65 heterodimer into nucleus in mouse RAW264.7 cells at 2.5 to 10 uM pretreated for 1 hr followed by induced with LPS measured after 24 hrs by Western blot analysis", "format": "subcellular", "conditions": "dose 2.5-10 µM, time 25.0 hrs"}, "[23]": {"tested_on": "RAW264.7", "experiment": "Reduction in LPS-induced nuclear p65 level in mouse RAW264.7 cells at 2.5 to 10 uM pretreated for 1 hr followed by induced with LPS measured after 24 hrs by Western blot analysis", "format": "functional, cell-based", "conditions": "dose 2.5-10 µM, time 25.0 hrs"}, "[24]": {"tested_on": "RAW264.7", "experiment": "Inhibition of LPS-induced NFkappaB p65 translocation from cytosol to nucleus in mouse RAW264.7 cells at 2.5 to 10 uM pretreated for 1 hr followed by induced with LPS measured after 24 hrs by Western blot analysis", "format": "subcellular", "conditions": "dose 2.5-10 µM, time 25.0 hrs"}, "[25]": {"biological_target": "c-Jun N-terminal kinase (Mus musculus) (UniProt Q91Y86+Q9WTU6+Q61831)", "sequence (Q61831 whole entry, looked up)": "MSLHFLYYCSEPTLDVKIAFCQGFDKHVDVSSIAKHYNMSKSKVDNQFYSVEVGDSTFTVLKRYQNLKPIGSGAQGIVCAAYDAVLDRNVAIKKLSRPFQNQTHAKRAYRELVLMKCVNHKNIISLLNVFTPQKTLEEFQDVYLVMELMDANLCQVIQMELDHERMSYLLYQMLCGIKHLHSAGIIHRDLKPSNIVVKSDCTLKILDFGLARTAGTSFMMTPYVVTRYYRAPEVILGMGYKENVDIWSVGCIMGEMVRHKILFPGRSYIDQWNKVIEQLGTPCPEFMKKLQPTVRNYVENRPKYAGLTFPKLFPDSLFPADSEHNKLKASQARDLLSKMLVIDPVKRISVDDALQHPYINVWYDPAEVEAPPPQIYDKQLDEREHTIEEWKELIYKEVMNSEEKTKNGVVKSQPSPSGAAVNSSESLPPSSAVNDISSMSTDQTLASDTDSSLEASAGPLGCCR", "sequence (Q91Y86 whole entry, looked up)": "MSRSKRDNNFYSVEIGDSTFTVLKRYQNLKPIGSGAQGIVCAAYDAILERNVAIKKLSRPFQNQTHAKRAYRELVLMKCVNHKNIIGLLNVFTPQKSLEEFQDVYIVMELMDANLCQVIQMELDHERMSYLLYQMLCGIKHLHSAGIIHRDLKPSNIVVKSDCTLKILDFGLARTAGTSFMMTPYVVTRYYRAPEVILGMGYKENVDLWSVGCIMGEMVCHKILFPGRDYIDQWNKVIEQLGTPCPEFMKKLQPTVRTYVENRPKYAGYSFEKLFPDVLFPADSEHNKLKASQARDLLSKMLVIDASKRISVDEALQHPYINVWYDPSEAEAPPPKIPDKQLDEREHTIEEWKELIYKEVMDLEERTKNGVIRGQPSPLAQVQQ", "sequence (Q9WTU6 whole entry, looked up)": "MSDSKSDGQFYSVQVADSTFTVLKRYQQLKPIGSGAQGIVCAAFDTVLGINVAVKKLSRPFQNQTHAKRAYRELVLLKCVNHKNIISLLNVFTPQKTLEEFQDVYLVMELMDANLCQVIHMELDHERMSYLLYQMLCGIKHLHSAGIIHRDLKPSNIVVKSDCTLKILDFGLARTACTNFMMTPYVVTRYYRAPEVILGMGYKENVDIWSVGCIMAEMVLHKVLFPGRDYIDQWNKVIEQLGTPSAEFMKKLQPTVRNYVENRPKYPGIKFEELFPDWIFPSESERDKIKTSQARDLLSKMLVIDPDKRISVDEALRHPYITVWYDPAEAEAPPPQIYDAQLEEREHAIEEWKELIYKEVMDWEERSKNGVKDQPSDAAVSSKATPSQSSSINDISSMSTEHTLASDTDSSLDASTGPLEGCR", "experiment": "Inhibition of LPS-induced JNK phosphorylation in mouse RAW264.7 cells at 2.5 to 10 uM pretreated for 1 hr followed by induced with LPS measured after 24 hrs by Western blot analysis", "format": "cell-based", "conditions": "dose 2.5-10 µM, time 25.0 hrs"}, "[26]": {"tested_on": "RAW264.7", "experiment": "Inhibition of LPS-induced ERK phosphorylation in mouse RAW264.7 cells at 2.5 to 10 uM pretreated for 1 hr followed by induced with LPS measured after 24 hrs by Western blot analysis", "format": "cell-based", "conditions": "dose 2.5-10 µM, time 25.0 hrs"}, "[27]": {"biological_target": "MAP kinase p38 (Mus musculus) (UniProt P47811+O08911+Q9WUI1+Q9Z1B7)", "experiment": "Inhibition of LPS-induced p38 MAPK phosphorylation in mouse RAW264.7 cells at 2.5 to 10 uM pretreated for 1 hr followed by induced with LPS measured after 24 hrs by Western blot analysis", "format": "cell-based", "conditions": "dose 2.5-10 µM, time 25.0 hrs"}, "[28]": {"tested_on": "RAW264.7", "experiment": "Inhibition of JNK protein level in LPS-induced mouse RAW264.7 cells at 2.5 to 10 uM pretreated for 1 hr followed by induced with LPS measured after 24 hrs by Western blot analysis", "format": "functional, cell-based", "conditions": "dose 2.5-10 µM, time 25.0 hrs"}, "[29]": {"tested_on": "RAW264.7", "experiment": "Inhibition of ERK protein level in LPS-induced mouse RAW264.7 cells at 2.5 to 10 uM pretreated for 1 hr followed by induced with LPS measured after 24 hrs by Western blot analysis", "format": "functional, cell-based", "conditions": "dose 2.5-10 µM, time 25.0 hrs"}, "[30]": {"tested_on": "RAW264.7", "experiment": "Inhibition of p38 MAPK protein level in LPS-induced mouse RAW264.7 cells at 2.5 to 10 uM pretreated for 1 hr followed by induced with LPS measured after 24 hrs by Western blot analysis", "format": "functional, cell-based", "conditions": "dose 2.5-10 µM, time 25.0 hrs"}},
  "note": "pIC50: −log10 of the molar value. The source made the active and inactive calls. No cut-off for these calls is given here.",
  "data": [
    {"smiles": "C[C@]12CC[C@H]3[C@@H](CC=C4C[C@@H](O)CC[C@@]43C)[C@@H]1CC[C@@H]2C1=NN(C2=NC(=O)CS2)C(c2cccc(F)c2)C1", "note": "(stereo not given in full)", "values": [
      {"measurement": "inhibition at 5 µM", "setting": "[1]", "value": 45.4, "unit": "%"},
      {"measurement": "viability at 24 h, 5 µM", "setting": "[2]", "value": 97.4, "unit": "%"},
      {"measurement": "pIC50", "setting": "[3]", "value": 5.63},
      {"measurement": "inhibition", "setting": "[4]", "value": "Active"},
      {"measurement": "Activity", "setting": "[5]", "value": 0.51, "unit": "ng/mL"},
      {"measurement": "Activity", "setting": "[6]", "value": 0.42, "unit": "ng/mL"},
      {"measurement": "Activity", "setting": "[7]", "value": 0.33, "unit": "ng/mL"},
      {"measurement": "Activity", "setting": "[8]", "value": 0.3, "unit": "ng/mL"},
      {"measurement": "Activity", "setting": "[9]", "value": 0.0824, "unit": "ng/mL"},
      {"measurement": "Activity", "setting": "[10]", "value": 0.0624, "unit": "ng/mL"},
      {"measurement": "Activity", "setting": "[11]", "value": 0.0428, "unit": "ng/mL"},
      {"measurement": "Activity", "setting": "[12]", "value": 0.0378, "unit": "ng/mL"},
      {"measurement": "inhibition", "setting": "[13]", "value": "Dose-Dependent Effect"},
      {"measurement": "inhibition", "setting": "[14]", "value": "Dose-Dependent Effect"},
      {"measurement": "inhibition", "setting": "[15]", "value": "Dose-Dependent Effect"},
      {"measurement": "inhibition", "setting": "[16]", "value": "Dose-Dependent Effect"},
      {"measurement": "inhibition", "setting": "[17]", "value": "Dose-Dependent Effect"},
      {"measurement": "inhibition", "setting": "[18]", "value": "Dose-Dependent Effect"},
      {"measurement": "inhibition", "setting": "[19]", "value": "Dose-Dependent Effect"},
      {"measurement": "inhibition", "setting": "[20]", "value": "Dose-Dependent Effect"},
      {"measurement": "inhibition", "setting": "[21]", "value": "Dose-Dependent Effect"},
      {"measurement": "inhibition", "setting": "[22]", "value": "Active"},
      {"measurement": "inhibition", "setting": "[23]", "value": "Active"},
      {"measurement": "inhibition", "setting": "[24]", "value": "Active"},
      {"measurement": "inhibition", "setting": "[25]", "value": "Active"},
      {"measurement": "inhibition", "setting": "[26]", "value": "Active"},
      {"measurement": "inhibition", "setting": "[27]", "value": "Active"},
      {"measurement": "Activity", "setting": "[28]", "value": "inactive"},
      {"measurement": "inhibition", "setting": "[29]", "value": "inactive"},
      {"measurement": "Activity", "setting": "[30]", "value": "inactive"}
    ]}
  ]
}
